As a reminder, the IC50 is the concentration at which inhibition is half-maximal. A high value points to weaker potency. By EC50 is commonly meant the concentration at which the effect is half-maximal.

This note sets out measurements from patent publication US12006332B2, “Aminopyrimidine derivatives as phosphatidylinositol phosphate kinase inhibitors” (HiberCell, Inc., priority 2019, dated 2024).

In one assay the target is T1, PIP4K2 B (Homo sapiens, UniProt P78356).
T1 construct: made in house; host or cells: E. coli
T1 sequence (P78356 1-416): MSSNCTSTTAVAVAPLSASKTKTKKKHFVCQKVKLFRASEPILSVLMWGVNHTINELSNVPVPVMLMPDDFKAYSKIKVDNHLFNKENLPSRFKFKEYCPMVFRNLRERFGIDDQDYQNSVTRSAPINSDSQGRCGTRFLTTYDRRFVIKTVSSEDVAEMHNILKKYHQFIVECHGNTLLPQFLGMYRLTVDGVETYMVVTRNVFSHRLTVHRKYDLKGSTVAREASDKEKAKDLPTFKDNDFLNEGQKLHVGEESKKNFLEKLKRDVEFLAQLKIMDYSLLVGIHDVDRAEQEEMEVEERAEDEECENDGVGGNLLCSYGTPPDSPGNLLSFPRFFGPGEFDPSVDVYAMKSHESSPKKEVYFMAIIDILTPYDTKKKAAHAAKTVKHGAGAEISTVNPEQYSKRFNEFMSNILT
As to the kind of experiment: Kinase Assay-PIP4K2 B (Transcreener FI). In kind it is biochemical. From the text: GST tagged PIP4KtypeIIA and B enzymes were overexpressed in E. Coli and purified to >80% homogeneity. Phosphatidyl inositol-5-phosphate (PI5P, Cat. #850152, Avanti Polar Lipids Inc.) was used as the lipid substrate and phosphatidyl ethanolamine (DOPE 18:1, Cat. #850725, Avanti Polar Lipids Inc.) was used as the carrier lipid for assays. Ultrapure ATP and GTP was purchased from Bellbrooke Labs. ADP Glo reagents were obtained from Promega. Transcreener FI reagent was obtained from Bellbrooke labs.
• 1. HEPES buffer mix: 200 mM HEPES pH 7.4, 50 mM MgCl2, 0.05% v/v triton X 100 • 2. HNE buffer: 20 mM HEPES, pH 7.4, 100 mM NaCl, 0.5 mM EGTA • 3. H:E buffer: 30 mM HEPES, pH 7.4, 1 mM EGTA
GST-tagged PIP4KtypeIIB (3.4 μl, 2.77 mg/mL) was diluted to 5 mL using HNE buffer to yield 5× enzyme stock (25 nM)
Lipid Preparation: In a 10 mL pyrex glass vial, […] were suspended in 2.5 mL of HEPES buffer mix and 2.5 mL of H:E buffer. The contents were mixed and sonicated for 3 min to yield a translucent lipid stock.
Compound Preparation: Compounds were stored as 5 mM stocks in neat DMSO as room temperature in glass vials. 5 mM stocks were diluted to 2 mM and then serially diluted (3×) in neat DMSO in 96 well polypropylene plates. From the serially diluted stocks, 3 μL was delivered into 250 μL of 25% DMSO (in water) to generate 5× compound stocks. Typically, the highest compound conc. was 24 μM.
The assay volume was kept at 25 μL. To each well of the reaction plate, 10 μL of lipid stock (1:1 ratio PI5P:DOPE) was delivered. This was followed by the addition of 5 μL of compound in 25% DMSO. Then, to each well, 5 μL of 25 nM (5×) typeIIB enzyme was delivered. The contents were mixed well and incubated for 1 h at 27° C. After 1 h, reaction was initiated by adding 5 μL of 500 μM GTP and the contents were mixed well with a multi-channel pipetteman. The final concentration of the reagents are as follows: 50 mM HEPES, pH 7.3, 10 mM MgCl2, 20 mM NaCl, 0.01% v/v triton-X100, 5% DMSO, 100 μM GTP, 80 μM (2 μg) PI5P, 2 μg DOPE, and 5 nM PIP4KIIB Typically, the highest conc. of compounds was 4.8 μM and the lowest conc. was 0.
After 2 h, the reaction was quenched by adding 25 μL of transcreener FI reagent. The contents were incubated at rt for 1 h and the Fluorescence (Ex: 584 Em: 623) was read using Molecular Devices Paradigm plate reader. […] The blanks were averaged and subtracted from all other wells. Using a calibration curve, RFU was converted to μM GDP (product). IC50 was calculated by plotting the residual activity (expressed as % No inhibitor control) vs. log [Inh. conc.].

Another assay concerns the target T2, PIP4K2A (Homo sapiens, UniProt P48426).
T2 construct: made in house; host or cells: E. coli
T2 sequence (P48426 1-406): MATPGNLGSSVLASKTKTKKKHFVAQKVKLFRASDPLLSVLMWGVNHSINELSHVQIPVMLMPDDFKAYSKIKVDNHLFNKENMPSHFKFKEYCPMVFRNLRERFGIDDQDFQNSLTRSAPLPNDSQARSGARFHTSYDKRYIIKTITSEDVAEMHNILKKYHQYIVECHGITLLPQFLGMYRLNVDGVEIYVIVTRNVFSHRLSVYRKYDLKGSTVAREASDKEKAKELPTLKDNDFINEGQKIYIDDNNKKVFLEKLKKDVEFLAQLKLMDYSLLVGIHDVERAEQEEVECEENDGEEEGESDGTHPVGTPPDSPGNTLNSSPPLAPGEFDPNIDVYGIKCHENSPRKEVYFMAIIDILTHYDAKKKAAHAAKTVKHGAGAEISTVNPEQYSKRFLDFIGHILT
As to the kind of experiment: Kinase Assay-PIP4K2 A (ADP-Glo). The format is biochemical. As for the experimental part: Dilution series of the compounds were prepared in DMSO at 100 times the final assay concentration (n1=n0/3 in 10 points). The compounds were further diluted to three times the assay concentration in assay buffer (20 mM MOPS pH 7.2, 25 mM magnesium chloride, 0.005% Tween 20). 6 μL of the diluted compounds were added to a 384 well assay plate followed by 9 μL of a mix consisting of 4 nM PIP4K2A (full length protein, SignalChem) and 100 μM PI(5)P diC8 (Tebu-Bio). Enzyme and compounds were pre-incubated at room temperature for 15 minutes.
Then 3 μL of a solution containing 60 μM ATP (Promega) in assay buffer was added to the wells containing compound and enzyme and mixing was performed by pipetting several times. The reaction was incubated at room temperature for 1 h. Then 18 μL of ADP-Glo™ Reagent (Promega) was added to stop the kinase reaction and deplete the unconsumed ATP, mixing was performed by pipetting several times. The plate was incubated at room temperature for 40 minutes before addition of 36 μL of Kinase Detection Reagent (Promega) to convert ADP to ATP and introduce luciferase and luciferin to detect ATP. The reaction was incubated at room temperature for 40 minutes before the luminescence was measured in a in a Victor 3V 1420 multilabel counter (Perkin Elmer).
Percent inhibition of the compounds as compared to dimethyl sulfoxide treated control samples was calculated. Compound concentration versus percent inhibition were fitted to generate IC50 values. […]
(In general: In ADP-Glo the light output rises with the ADP produced.)

For another assay, the system named is MOLM-16. As to the kind of experiment: MOLM-16 EC50 assay. The format is cell-based. The following applies: MOLM16.

As to `O=C1CCCN1c1ccc(-c2cnc(Nc3cnc4c(c3)N3C(=O)CC[C@H]3CO4)nc2OCCN2CCOCC2)cc1` [Compound 6, (6S)-12-({4-[2-(morpholin-4-yl)ethoxy]-5-[4-(2-oxopyrrolidin-1-yl)phenyl]pyrimidin-2-yl}amino)-8-oxa-2,10-diazatricyclo[7.4.0.0^2,6]trideca-1(9),10,12-trien-3-one], the IC50 against PIP4K2 B and at PIP4K2A was 1 to 10 nM in each case. The compound also gave an EC50 in the assay with MOLM-16 of 10 to 100 nM.
`O=C(O)CNc1nc(Nc2cnc3c(c2)N2C(=O)CC[C@H]2CO3)ncc1-c1ccc(N2CCCC2=O)cc1` [Compound 1, 2-[(2-{[(6S)-3-oxo-8-oxa-2,10-diazatricyclo[7.4.0.0^2,6]trideca-1(9),10,12-trien-12-yl]amino}-5-[4-(2-oxopyrrolidin-1-yl)phenyl]pyrimidin-4-yl)amino]acetic acid]: the IC50 at PIP4K2 B and against PIP4K2A was ≤ 1 nM throughout. Besides, the EC50 with MOLM-16 is > 1000 nM.
With `COc1nc(Nc2cncc(OCCN3CCC(F)(F)C3)c2)ncc1-c1ccc(-c2nnccc2C)cc1` [Compound 40, N-{5-[2-(3,3-difluoropyrrolidin-1-yl)ethoxy]pyridin-3-yl}-4-methoxy-5-[4-(4-methylpyridazin-3-yl)phenyl]pyrimidin-2-amine], the IC50 against PIP4K2 B and on PIP4K2A was 10 to 100 nM in each case. The compound further displayed an EC50 with MOLM-16 of 100 to 1000 nM.
For the compound `COc1nc(Nc2cncc(N3CCC(N(C)C)CC3)c2)ncc1-c1ccc(N2CCCC2=O)cc1` [Compound 16, 1-{4-[2-({5-[4-(dimethylamino)piperidin-1-yl]pyridin-3-yl}amino)-4-methoxypyrimidin-5-yl]phenyl}pyrrolidin-2-one], the IC50 against PIP4K2 B and at PIP4K2A was 10 to 100 nM throughout. In addition, the EC50 with MOLM-16 was 10 to 100 nM.
For the compound `CN(c1nc(Nc2cnc3c(c2)N2C(=O)CC[C@H]2CO3)ncc1-c1ccc(N2CCCC2=O)cc1)[C@H]1CCOC1` [Compound 2, (6S)-12-[(4-{methyl[(3S)-oxolan-3-yl]amino}-5-[4-(2-oxopyrrolidin-1-yl)phenyl]pyrimidin-2-yl)amino]-8-oxa-2,10-diazatricyclo[7.4.0.0^2,6]trideca-1(13),9,11-trien-3-one], the IC50 was 1 to 10 nM at PIP4K2 B and ≤ 1 nM against PIP4K2A. For the same compound, the EC50 in the assay with MOLM-16 is > 1000 nM.
On to `O=C1CCCN1c1ccc(-c2cnc(Nc3cnc4c(c3)N3C(=O)CC[C@H]3CO4)nc2CC2(O)COC2)cc1F` [Compound 21, (6S)-12-({5-[3-fluoro-4-(2-oxopyrrolidin-1-yl)phenyl]-4-[(3-hydroxyoxetan-3-yl)methyl]pyrimidin-2-yl}amino)-8-oxa-2,10-diazatricyclo[7.4.0.0^2,6]trideca-1(9),10,12-trien-3-one], for which the IC50 against PIP4K2 B and at PIP4K2A was 10 to 100 nM each time. For the same compound, in the assay with MOLM-16, the EC50 is > 1000 nM.
With `CN(c1nc(Nc2cnc3c(c2)N2C(=O)CC[C@H]2CO3)ncc1-c1ccc(N2CCCC2=O)cc1)C1CCOC1` (stereo partly drawn) [Compound 3, (6S)-12-({4-[methyl(oxolan-3-yl)amino]-5-[4-(2-oxopyrrolidin-1-yl)phenyl]pyrimidin-2-yl}amino)-8-oxa-2,10-diazatricyclo[7.4.0.0^2,6]trideca-1(13),9,11-trien-3-one], the figures for the IC50 at PIP4K2 B and against PIP4K2A were 1 to 10 nM and ≤ 1 nM, respectively. Besides, in the assay on MOLM-16, the EC50 was > 1000 nM.
Regarding `CN(c1nc(Nc2cnc3c(c2)OCCO3)ncc1-c1ccc(N2CCCC2=O)cc1)[C@H]1C[C@H](O)C1` [Compound 12, 1-{4-[2-({2H,3H-[1,4]dioxino[2,3-b]pyridin-7-yl}amino)-4-{methyl[(1r,3r)-3-hydroxycyclobutyl]amino}pyrimidin-5-yl]phenyl}pyrrolidin-2-one], the IC50 against PIP4K2 B and against PIP4K2A was 1 to 10 nM throughout. In the assay with MOLM-16, this compound returned an EC50 of 100 to 1000 nM.
Regarding `COc1nc(Nc2cnc3c(c2)N(C(=O)OCCN(C)C)CCO3)ncc1-c1ccc(C(=O)N(C)C)cc1` [Compound 15, 2-(dimethylamino)ethyl 7-({5-[4-(dimethylcarbamoyl)phenyl]-4-methoxypyrimidin-2-yl}amino)-1H,2H,3H-pyrido[2,3-b][1,4]oxazine-1-carboxylate], the IC50 against PIP4K2 B and on PIP4K2A was 1 to 10 nM each time. The same compound came in with an EC50 in the assay on MOLM-16 of 100 to 1000 nM.
Turning to `COc1nc(Nc2cncc(N3CC[C@H](N(C)C)C3)c2)ncc1-c1ccc(N2CCCC2=O)cc1` [Compound 38, 1-{4-[2-({5-[(3S)-3-(dimethylamino)pyrrolidin-1-yl]pyridin-3-yl}amino)-4-methoxypyrimidin-5-yl]phenyl}pyrrolidin-2-one], the IC50 at PIP4K2 B and at PIP4K2A was 10 to 100 nM in each case. In addition, the EC50 in the assay on MOLM-16 lay in the range of 10 to 100 nM.
Turning to `COc1nc(Nc2cncc(N(C)CCC(=O)N3CCNCC3)c2)ncc1-c1ccc(N2CCCC2=O)cc1` [Compound 39, 1-(4-{4-methoxy-2-[(5-{methyl[3-oxo-3-(piperazin-1-yl)propyl]amino}pyridin-3-yl)amino]pyrimidin-5-yl}phenyl)pyrrolidin-2-one], the IC50 against PIP4K2 B and against PIP4K2A was 10 to 100 nM each time. Moreover, the concentration giving a half-maximal response (EC50) in the assay with MOLM-16 is 100 to 1000 nM.
In the case of `CCN(CC)CCN1CCOc2ncc(Nc3ncc(-c4ccc(N5CCCC5=O)cc4)c(OC)n3)cc21` [Compound 26, 1-{4-[2-({1-[2-(diethylamino)ethyl]-1H,2H,3H-pyrido[2,3-b][1,4]oxazin-7-yl}amino)-4-methoxypyrimidin-5-yl]phenyl}pyrrolidin-2-one], the IC50 at PIP4K2 B and at PIP4K2A was 100 to 1000 nM each time. Besides, the EC50 in the assay with MOLM-16 is 100 to 1000 nM.
